Where two headings read alike, the source gives them in different places.
Assays:
CD1 female mice = test: Visual observation of mice given CP; type: in vivo, mouse; conditions: PND 35, PND 50 and adult mice; 3 mg/kg i.p.
Experimental: The Bloomington Institutional Animal Care and Use Committee of Indiana University reviewed and approved the animal procedures. Female mice from the CD1 strain were utilized to match our study examining THC’s effects on the brain lipidome ([Leishman et al., 2018]). Mice were given a single i.p. injection of either 3 mg/kg CP or 1:1:18 cremophor:ethanol:saline vehicle (please refer to the section “3 mg/kg CP Is Relevant for Synthetic Cannabinoid Abuse and Has Stronger Effects on the Female Mouse Brain Lipidome During Adolescence” for a justification of dose and use of female mice). Three different age groups were given injections: PND 35 and PND 50 adolescents, and adult mice (PND 113). At least eight mice in each age group received CP and at least eight received vehicle. Matching the THC study time course ([Leishman et al., 2018]), mice were sacrificed via rapid decapitation 2 h after injection. Brains were immediately removed and flash-frozen in liquid nitrogen, and then stored at -80°C until dissections were performed. Brains were dissected on an ice-cold dissection plate into the following regions: STR, HIPP, CER, THAL, CTX, HYP, MID, and STEM. These abbreviations for these brain areas will be used exclusively when discussing the results generated by these specific dissections. […]

CB1 = system: CB1; set-up: method as in Felder et al., 1995; conditions: ref Felder et al., 1995; read-out: IC50, inhibition of adenylate cyclase at CB1; cited from earlier work
mice = conditions: cited from earlier work; for catalepsy: single 0.3 mg/kg injection, ref Kow et al., 2014
rats [1] = system: rats; set-up: method as in McGregor et al., 1996; conditions: acute injection of 0.1 mg/kg, ref McGregor et al., 1996; cited from earlier work
rats [2] = system: rats; set-up: method as in Higuera-Matas et al., 2010; conditions: ref Higuera-Matas et al., 2010, cited from earlier work
[3] = system: CD1 female mouse brain lipidome; test: Brain-region lipid levels (HPLC/MS/MS lipidomics) 2 h after single i.p. 3 mg/kg CP 55,940 vs vehicle; type: in vivo
Experimental: (§1) The Bloomington Institutional Animal Care and Use Committee of Indiana University reviewed and approved the animal procedures. Female mice from the CD1 strain were utilized to match our study examining THC’s effects on the brain lipidome ([Leishman et al., 2018]). Mice were given a single i.p. injection of either 3 mg/kg CP or 1:1:18 cremophor:ethanol:saline vehicle (please refer to the section “3 mg/kg CP Is Relevant for Synthetic Cannabinoid Abuse and Has Stronger Effects on the Female Mouse Brain Lipidome During Adolescence” for a justification of dose and use of female mice). Three different age groups were given injections: PND 35 and PND 50 adolescents, and adult mice (PND 113). At least eight mice in each age group received CP and at least eight received vehicle. Matching the THC study time course ([Leishman et al., 2018]), mice were sacrificed via rapid decapitation 2 h after injection. Brains were immediately removed and flash-frozen in liquid nitrogen, and then stored at -80°C until dissections were performed. Brains were dissected on an ice-cold dissection plate into the following regions: STR, HIPP, CER, THAL, CTX, HYP, MID, and STEM. These abbreviations for these brain areas will be used exclusively when discussing the results generated by these specific dissections. Each dissected area was immediately placed in liquid nitrogen and then stored at -80°C until used for lipid extraction.
(§2) Tissue extracts were performed as previously described ([Bradshaw et al., 2006]; [Stuart et al., 2013]; [Raboune et al., 2014]; [Leishman et al., 2016a],[b], [2017], [2018]). First, samples were shock frozen in liquid nitrogen, weighed, and transferred to a centrifuge tube. The mass of the largest sample was multiplied by 50 to determine how many milliliters of HPLC-grade methanol (Fisher, Fair Lawn, NJ, United States) to add. Then, samples were spiked with 500 pmol deuterium-labeled NAGly (d8NAGly; Cayman Chemical, Ann Arbor, MI, United States). Samples were placed on ice in darkness for 2 h then individually homogenized and centrifuged at 19,000 × g for 20 min at 20°C. Supernatants were diluted with HPLC water (purified in house) to make a solution of 75% water, 25% supernatant. Lipids were partially purified on C18 solid phase extraction columns (Agilent, Palo Alto, CA, United States). A series of four elutions with 1.5 mL of 60%, 75%, 85%, and 100% methanol were collected ([Stuart et al., 2013]; [Leishman et al., 2016a],[b], [2018]).
As previously described ([Bradshaw et al., 2006]; [Tan et al., 2006]; [Smoum et al., 2010]; [Stuart et al., 2013]; [Tortoriello et al., 2013]; [Raboune et al., 2014]; [Leishman et al., 2016a],[b], [2017], [2018]), samples were analyzed using an Applied Biosystems API 3000 triple quadrupole mass spectrometer with electrospray ionization (Foster City, CA, United States). Using an Agilent XDB-C18 reversed phase analytical column and optimized mobile phase gradients, 20 μL from each elution were chromatographed. Two Shimadzu 10ADvp pumps (Columbia, MD, United States) provided the pressure for gradient elution. Mobile phase A: 20% methanol, 80% water (v/v) and 1 mM ammonium acetate (Sigma, St. Louis, MO, United States). Mobile phase B: 100% methanol, 1 mM ammonium acetate. Every method run began with 0% mobile phase B, reached 100% mobile phase B flowing at 0.2 mL/min, and gradually returned to 0% mobile phase B.
This screening library will be referred to as the lipidome when discussing data from this study. HPLC/MS/MS data were analyzed using Analyst software (Applied Biosystems) ([Bradshaw et al., 2006]; [Tan et al., 2006]; [Stuart et al., 2013]; [Tortoriello et al., 2013]; [Raboune et al., 2014]; [Leishman et al., 2016a],[b], [2017], [2018]). Chromatograms (Supplementary Figure 3) were generated by determining the retention time of analytes from the analytical column with a [M-1] or [M+1] parent peak and a fragmentation peak corresponding to the programmed values. […]

[4] = system: CD1 female mouse brain lipidome; test: as above; type: in vivo; set-up: unit: moles per gram
Experimental: as §1
as §2, with “Supernatants were diluted with HPLC water (purified in house) to make a solution of 75% water, 25% supernatant. Lipids were partially purified on C18 solid phase extraction columns (Agilent, Palo Alto, CA, United States). A series of four elutions with 1.5 mL of 60%, 75%, 85%, and 100% methanol were collected ([Stuart et al., 2013]; [Leishman et al., 2016a],[b], [2018]).” left out
As previously described ([Bradshaw et al., 2006]; [Tan et al., 2006]; [Smoum et al., 2010]; [Stuart et al., 2013]; [Tortoriello et al., 2013]; [Raboune et al., 2014]; [Leishman et al., 2016a],[b], [2017], [2018]), samples were analyzed using an Applied Biosystems API 3000 triple quadrupole mass spectrometer with electrospray ionization (Foster City, CA, United States). […]
This screening library will be referred to as the lipidome when discussing data from this study. HPLC/MS/MS data were analyzed using Analyst software (Applied Biosystems) ([Bradshaw et al., 2006]; [Tan et al., 2006]; [Stuart et al., 2013]; [Tortoriello et al., 2013]; [Raboune et al., 2014]; [Leishman et al., 2016a],[b], [2017], [2018]). […]

Which results are given for `CCCCCCC(C)(C)c1ccc([C@@H]2C[C@H](O)CC[C@H]2CCCO)c(O)c1` [CP 55,940]?
locomotor activity (visual observation) (CD1 female mice): profoundly reduced locomotor activity; mortality (CD1 female mice): no mortality; IC50 (CB1): […]; catalepsy (mice; C57 mice): produced catalepsy; catalepsy (mice; CB1 KO mice): not; ED50 for catalepsy (mice; ref Little et al., 1988, Compton et al., 1992): 0.4 mg/kg; duration of anorexic effects (rats [1]): […]; cocaine self-administration at PND 75 vs vehicle (rats [2]; female rats, daily 0.4 mg/kg PND 28-38): […]; DAT in the caudate-putamen (rats [2]; rats, CP during adolescence): upregulated; dopamine D2 receptor levels in the HIPP (rats [2]; rats, CP during adolescence): decreased; PGF2α level, Mean ([3]; adult cortex, 3mg/kg CP 55,940): 2.77E-10; PGF2α level, Mean ([3]; adult female mice, brainstem, 3mg/kg CP 55,940): 1.69E-10; PGF2α level, Mean ([3]; adult hypothalamus, 3 mg/kg CP 55,940): 2.18E-10; PGF2α level, Mean ([3]; adult midbrain, 3mg/kg CP 55,940): 2.91E-10; PGF2α level, Mean ([3]; brainstem, PND 50, 3 mg/kg CP 55,940): 1.26E-10; PGF2α level, Mean ([3]; cerebellum, WT adult female mice, 3mg/kg CP 55,940): 2.22E-10; PGF2α level, Mean ([3]; cerebellum, PND35 WT female mice, 3mg/kg CP 55,940): 3.05E-10; PGF2α level, Mean ([3]; cortex, PND 50 female mice, 3mg/kg CP 55,940): 1.71E-10; PGF2α level, Mean ([3]; cortex, PND 35 adolescent female mice, 3 mg/kg CP 55,940): 3.11E-10; PGF2α level, Mean ([3]; hippocampus, adult, 3 mg/kg CP 55,940): 3.25E-10; PGF2α level, Mean ([3]; hippocampus, PND 35 WT female mice, 3mg/kg CP 55,940): 9.18E-10; PGF2α level, Mean ([3]; hypothalamus, PND 50 female mice, 3mg/kg CP 55,940): 1.35E-10; PGF2α level, Mean ([3]; midbrain, PND 50 female mice, 3mg/kg CP 55,940): 1.57E-10; PGF2α level, Mean ([3]; striatum, adult, 3 mg/kg CP 55,940): 2.43E-10; PGF2α level, Mean ([3]; thalamus, WT adult female mice, 3mg/kg CP 55,940): 2.22E-10; PGF2α level, Mean ([3]; thalamus, PND 35 adolescent female mice, 3 mg/kg CP 55,940): 5.11E-10; PGF2α level, Mean ([4]; cerebellum, PND 50 female mice, 3 mg/kg CP 55,940): 6.11E-11; PGF2α level, Mean ([4]; hypothalamus, PND 35 adolescent female mice, 3 mg/kg): 3.47E-10; PGF2α level, Mean ([4]; midbrain, PND 35 WT adolescent female mice, 3 mg/kg): 5.59E-10; PGF2α level, Mean ([4]; thalamus, PND 50 female mice, 3 mg/kg CP 55,940): 1.3E-10
